Source: patent US20240174744A1, “METHODS OF TREATMENT USING PROTEIN BINDERS TO IRHOM2 EPITOPES” (SCIRHOM GMBH, priority 2021, published 2024)

System: PMA-induced release of HB-EGF from PBMCs from patients suffering from rheumatoid arthritis
Assay: ELISA-based HB-EGF release assay, PBMCs from RA-patients
Format: cell-based
Settings: Homo sapiens; chimeric antibodies (CHO) 1 μg/ml; Batimastat 10 μM; PMA 25 ng/ml, 6 hours
Protocol: In contrast to Example 35, where the inhibitory effects of the antibodies of the present disclosure on PMA-induced release of endogenous HB-EGF from primary human material obtained from healthy donors using peripheral blood mononuclear cells (PBMCs) were tested, this analysis was conducted to analyze the inhibitory effects of the antibodies of the present disclosure on PMA-induced release of endogenous HB-EGF from primary human material obtained from patients suffering from rheumatoid arthritis (RA-patients).
In brief, on day 1, Nunc black MaxiSorp® 96-well plates (Thermo Fisher Scientific, USA) were coated overnight with 100 μl per well of rat anti-human HB-EGF capture antibody (provided as part of the DuoSet ELISA kit) at 2 μg/ml TBS at 4° C. On day 2, the capture antibody solution was removed and MaxiSorp® plates were blocked with 300 μl per well of TBS, 1% BSA at room temperature for 3 hours. […]
To avoid drying-up, 30 μl TBS were added to each well of the MaxiSorp® plates immediately, followed by the transfer of 70 μl cell-free supernatant per sample. […] Using an infinite M1000 (Tecan Group, Switzerland) microplate reader, the fluorescence of each well was collected at an excitation wavelength of 435 nm and an emission wavelength of 555 nm.

In the case of `CNC(=O)[C@H](Cc1ccccc1)NC(=O)[C@H](CC(C)C)[C@H](CSc1cccs1)C(=O)NO` [Batimastat], the inhibition at 10 µM is reported as 102%.
